# In patent US20250100993A1, “2-SUBSTITUTED THIAZOLE HSD17B13 INHIBITORS AND USES THEREOF” (Inipharm, Inc., priority 2022, published 2025):
# Target: HSD17B13 (Homo sapiens (Human), UniProt Q7Z5P4)
# Experiment: LC/MS estrone detection assay for HSD17B13 activity (estradiol to estrone)
# Format: biochemical
# Details: estradiol substrate, LC-MS/MS estrone detection
# Protocol: The liquid chromatography/mass spectrometry (LC/MS) estrone detection assay monitors the conversion of estradiol to estrone by HSD17B13. This assay was undertaken in a 96 wp format (Eppendorf deep well Plate 96/500) in an 80 μl reaction volume containing: 4 μM of Estradiol (E2; Cayman; Ser. No. 10/006,315), 6 mM NAD+(Sigma; #N0623) and 30 nM HSD17B13 enzyme (in-house; E. coli expressed His-tagged, purified, soluble protein) in a reaction containing 1M potassium phosphate buffer pH 7.4, with 0.5% vehicle (DMSO). Reactions were incubated for 2 hours at 26.5° C., and estradiol (E2) conversion to estrone (E1) was quantitated by LC-MS/MS based analyte detection for both E2 and E1 using LCMS grade reagents.
# Reactions were terminated by the addition of two volumes of acetonitrile (MeCN; LCMS grade; CAS #75/05/8) containing deuterated (D4)-E1 used as internal standard (Clear Synth; #CS-T-54273; 500 ng/mL final concentration). Samples were applied to pre-prepared Bond Elut-C18 extraction cartridges (3 mL; Agilent; Ser. No. 12/102,028), washed and eluted in MeCN. Eluates were dried under nitrogen and re-suspended in 60% methanol (LCMS grade methanol; CAS #67/56/1) before submission for analysis. Aqueous linearity for E2 and E1 were included for quantification.
# Analysis of samples was undertaken on a XBridge BEH C18 column (Waters; #186003033) using 0.1% Diethyl Amine in MeCN (mobile phase A; DEA CAS #109-89-7) and 0.1% Diethyl Amine in milli-Q water (mobile phase B) in a 3 min gradient allowing 25% B. Analytes were detected in negative mode using MRM analysis, with E2 having a RT of 1.85 min and E1 having a RT of 2 min. Activity of the enzyme, in the absence of NAD+, was used to evaluate specificity of conversion. Enzyme activity in the presence of test samples was expressed as a percentage of the uninhibited enzyme activity, and plotted versus inhibitor concentration. Non-linear regression was performed using a four-parameter logistic model and GraphPad Prism software (GraphPad Software, La Jolla, CA). All assessments were undertaken in duplicate evaluations and pooled during extraction process and subsequently injected as duplicates for LC-MS/MS analysis.
# HSD17B13, sequence (Q7Z5P4 20-300): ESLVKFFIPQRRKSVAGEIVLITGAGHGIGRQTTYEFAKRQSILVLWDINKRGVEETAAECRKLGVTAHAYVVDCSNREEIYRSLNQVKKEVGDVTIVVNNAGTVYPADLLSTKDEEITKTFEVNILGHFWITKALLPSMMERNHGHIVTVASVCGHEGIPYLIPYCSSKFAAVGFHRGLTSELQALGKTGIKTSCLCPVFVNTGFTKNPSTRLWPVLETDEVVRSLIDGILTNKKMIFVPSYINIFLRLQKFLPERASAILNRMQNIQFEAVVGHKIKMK
row,IC50 [nM],SMILES
1,≤ 100,"O=C(Nc1nn(-c2ccccc2)cc1C(=O)NCc1ccccc1C(F)(F)F)c1cc(Cl)c(O)c(Cl)c1 [Example 9, 3-(3,5-dichloro-4-hydroxybenzamido)-1-phenyl-N-(2-(trifluoromethyl)benzyl)-1H-pyrazole-4-carboxamide]"
2,100 to 500,"O=C(Nc1nn(C(F)F)cc1C(=O)NCc1ccccc1C(F)(F)F)c1cc(Cl)c(O)c(Cl)c1 [Example 55, 3-(3,5-dichloro-4-hydroxybenzamido)-1-(difluoromethyl)-N-(2-(trifluoromethyl)benzyl)-1H-pyrazole-4-carboxamide]"
3,100 to 500,"Cn1cc(C(=O)NCc2ccccc2C(F)(F)F)c(NC(=O)c2cc(Cl)c(O)c(Cl)n2)n1 [Example 2, 4,6-dichloro-5-hydroxy-N-(1-methyl-4-((2-(trifluoromethyl)benzyl)carbamoyl)-1H-pyrazol-3-yl)picolinamide]"
4,100 to 500,"CC(C)(C)CCNC(=O)c1ncsc1NC(=O)c1cc(Cl)c(O)c(Cl)n1 [Example 35, 5-(4,6-dichloro-5-hydroxypicolinamido)-N-(3,3-dimethylbutyl)thiazole-4-carboxamide]"
5,100 to 500,"O=C(Nc1sc(-c2cccnc2)nc1C(=O)NCc1ccccc1C(F)(F)F)c1cc(Cl)c(O)c(Cl)n1 [Example 51, 5-(4,6-dichloro-5-hydroxypicolinamido)-2-(pyridin-3-yl)-N-(2-(trifluoromethyl)benzyl)thiazole-4-carboxamide]"
6,100 to 500,"O=C(Nc1scnc1C(=O)NC1CCOc2ccccc21)c1cc(Cl)c(O)c(Cl)n1 (stereo not shown) [Example 43, N-(chroman-4-yl)-5-(4,6-dichloro-5-hydroxypicolinamido)thiazole-4-carboxamide]"
7,100 to 500,"O=C(Nc1nn(CC(F)(F)F)cc1C(=O)NCc1ccccc1C(F)(F)F)c1cc(Cl)c(O)c(Cl)n1 [Example 50, 4,6-dichloro-5-hydroxy-N-(1-(2,2,2-trifluoroethyl)-4-((2-(trifluoromethyl)benzyl)carbamoyl)-1H-pyrazol-3-yl)picolinamide]"
8,≤ 100,"Cc1ccc(NC(=O)c2cc(Cl)c(O)c(Cl)c2)c2c(=O)n(Cc3ccccc3C(F)(F)F)nnc12 [Example 11, 3,5-dichloro-4-hydroxy-N-(8-methyl-4-oxo-3-(2-(trifluoromethyl)benzyl)-3,4-dihydrobenzo[d][1,2,3]triazin-5-yl)benzamide]"

# The next lines start with the molecule.
row,SMILES,IC50 [nM]
1,"O=C(Nc1scnc1C(=O)NCc1ccc2c(c1)OCO2)c1cc(Cl)c(O)c(Cl)n1 [Example 41, N-(benzo[d][1,3]dioxol-5-ylmethyl)-5-(4,6-dichloro-5-hydroxypicolinamido)thiazole-4-carboxamide]",100 to 500
2,"Cn1ncc(C(=O)NCc2ccccc2C(F)(F)F)c1NC(=O)c1cc(Cl)c(O)c(Cl)c1 [Example 7, 5-(3,5-dichloro-4-hydroxybenzamido)-1-methyl-N-(2-(trifluoromethyl)benzyl)-1H-pyrazole-4-carboxamide]",1000 to 10000
3,"CCn1c(=O)n(Cc2ccccc2C(F)(F)F)c(=O)c2c(NC(=O)c3cc(Cl)c(O)c(Cl)n3)cccc21 [Example 18, 4,6-dichloro-N-(1-ethyl-2,4-dioxo-3-(2-(trifluoromethyl)benzyl)-1,2,3,4-tetrahydroquinazolin-5-yl)-5-hydroxypicolinamide]",100 to 500
4,"Cn1c(=O)n(Cc2ccccc2C(F)(F)F)c(=O)c2c(NC(=O)c3cc(Cl)c(O)c(Cl)n3)ccc(F)c21 [Example 19, 4,6-dichloro-N-(8-fluoro-1-methyl-2,4-dioxo-3-(2-(trifluoromethyl)benzyl)-1,2,3,4-tetrahydroquinazolin-5-yl)-5-hydroxypicolinamide]",100 to 500
5,"CS(=O)(=O)c1ccccc1CNC(=O)c1ncsc1NC(=O)c1cc(Cl)c(O)c(Cl)n1 [Example 42, 5-(4,6-dichloro-5-hydroxypicolinamido)-N-(2-(methylsulfonyl)benzyl)thiazole-4-carboxamide]",100 to 500
6,"CN(Cc1ccccc1C(F)(F)F)C(=O)c1ncsc1NC(=O)c1cc(Cl)c(O)c(Cl)n1 [Example 25, 5-(4,6-dichloro-5-hydroxypicolinamido)-N-methyl-N-(2-(trifluoromethyl)benzyl)thiazole-4-carboxamide]",100 to 500
7,"Cc1nsc(NC(=O)c2cc(Cl)c(O)c(Cl)n2)c1C(=O)NCc1ccccc1OC(F)(F)F [Example 29, 5-(4,6-dichloro-5-hydroxypicolinamido)-3-methyl-N-(2-(trifluoromethoxy)benzyl)isothiazole-4-carboxamide]",100 to 500
8,"O=C(Nc1scnc1C(=O)N1CCC2(CCCCC2)C1)c1cc(Cl)c(O)c(Cl)n1 [Example 31, N-(4-(2-azaspiro[4.5]decane-2-carbonyl)thiazol-5-yl)-4,6-dichloro-5-hydroxypicolinamide]",1000 to 10000
9,"Cn1ncc(NC(=O)c2cc(Cl)c(O)c(Cl)n2)c1C(=O)NCc1ccccc1OC(F)(F)F [Example 5, 4,6-dichloro-5-hydroxy-N-(1-methyl-5-((2-(trifluoromethoxy)benzyl)carbamoyl)-1H-pyrazol-4-yl)picolinamide]",100 to 500
10,"O=C(Nc1scnc1C(=O)NC1(c2ccccc2)CCC1)c1cc(Cl)c(O)c(Cl)n1 [Example 32, 5-(4,6-dichloro-5-hydroxypicolinamido)-N-(1-phenylcyclobutyl)thiazole-4-carboxamide]",≤ 100

# Same assay, conditions: estradiol substrate, LCMS; read-out: HSD17B13 Inhibition_Estradiol Substrate_LCMS: Ki
row,Ki [nM],SMILES
1,≤ 50,"O=C(Nc1sc(-c2ccccc2F)nc1C(=O)NCc1ccccc1C(F)(F)F)c1cc(Cl)c(O)c(F)n1 [Example 107, 5-(4-chloro-6-fluoro-5-hydroxypicolinamido)-2-(2-fluorophenyl)-N-(2-(trifluoromethyl)benzyl)thiazole-4-carboxamide]"
2,100 to 500,"CN1CC=C(c2nc(C(=O)NCc3ccccc3C(F)(F)F)c(NC(=O)c3cc(Cl)c(O)c(Cl)n3)s2)CC1 [Example 85, 5-(4,6-dichloro-5-hydroxypicolinamido)-2-(1-methyl-1,2,3,6-tetrahydropyridin-4-yl)-N-(2-(trifluoromethyl)benzyl) thiazole-4-carboxamide]"
3,≤ 50,O=C(Nc1sc(-c2ccc[nH]c2=O)nc1C(=O)NCc1ccccc1C(F)(F)F)c1cc(Cl)c(O)c(Cl)c1 [Example 77]

# Second part, the molecule before the results:
row,SMILES,Ki [nM]
1,"O=C(Nc1sc(N2CCS(=O)(=O)CC2)nc1C(=O)NCc1ccccc1C(F)(F)F)c1cc(Cl)c(O)c(Cl)c1 [Example 79, 5-(3,5-dichloro-4-hydroxybenzamido)-2-(1,1-dioxidothiomorpholino)-N-(2-(trifluoromethyl)benzyl)thiazole-4-carboxamide]",100 to 500
2,"O=C(Nc1sc(N2CCOCC2)nc1C(=O)NCc1ccccc1C(F)(F)F)c1cc(Cl)c(O)c(Cl)n1 [Example 80, 5-(4,6-dichloro-5-hydroxypicolinamido)-2-morpholino-N-(2-(trifluoromethyl)benzyl)thiazole-4-carboxamide]",100 to 500
3,O=C(Nc1sc(-c2ccc[nH]c2=O)nc1C(=O)NCc1ccccc1C(F)(F)F)c1cc(Cl)c(O)c(Cl)n1 [Example 74],≤ 50
4,"O=C(Nc1sc(C2CCOCC2)nc1C(=O)NCc1ccccc1C(F)(F)F)c1cc(Cl)c(O)c(Cl)n1 [Example 81, 5-(4,6-dichloro-5-hydroxypicolinamido)-2-(tetrahydro-2H-pyran-4-yl)-N-(2-(trifluoromethyl)benzyl)thiazole-4-carboxamide]",100 to 500
